The values below come from patent publication US11130769B2 (Prelude Therapeutics Incorporated, priority 2018, dated 2021).

One assay concerns the target MCL-1 (Homo sapiens (Human), UniProt Q07820). Put plainly: Cell free Mcl-1:Bim affinity assay (fluorescence polarization competition). Type of assay: binding. To be noted: 15 nM MCL-1, 5 nM FITC-Bim, 1 hour at room temperature, read-out: BIM_Ki. In a few lines:
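Fluorescence polarization competition: 10-point 3-fold compound dilutions displaced 5 nM FITC-Bim from 15 nM MCL-1 over 1 h at room temperature. Ki was derived from the fitted IC50 using the Nikolovska-Coleska equation, with percent inhibition normalized to DMSO and positive controls.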

Another assay deals with H929 cells. Description: Cell viability assay (H929 10 FBS). Type of assay: cell-based. To be noted: read-out: H929_10FBS IC50. In a few lines:
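ATP-based luminescence (CellTiter-Glo or ATPlite 1 Step, 30-60 min at RT) gauged viability of H929 myeloma cells after 24 h compound treatment at 37 °C. Cells plated at 4000 per well in 10% FBS RPMI 1640 supplemented with pyruvate, HEPES and glucose.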

The mark [1] stands for this setting: Homo sapiens, NCI-H929, 24 hours.

Where two headings read alike, the source gives them in different places.

Sequence of MCL-1 (Q07820 whole entry): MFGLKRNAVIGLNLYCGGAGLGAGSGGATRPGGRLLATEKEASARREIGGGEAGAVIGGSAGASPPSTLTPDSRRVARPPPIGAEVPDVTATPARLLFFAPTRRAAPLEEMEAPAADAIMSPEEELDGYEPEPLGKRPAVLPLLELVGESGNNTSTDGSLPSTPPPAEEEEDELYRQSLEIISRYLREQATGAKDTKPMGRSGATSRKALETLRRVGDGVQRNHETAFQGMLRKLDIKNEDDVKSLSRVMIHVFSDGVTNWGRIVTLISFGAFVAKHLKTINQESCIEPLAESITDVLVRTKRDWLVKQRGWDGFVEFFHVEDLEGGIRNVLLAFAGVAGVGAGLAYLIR

`CON(C)CCO[C@H]1/C=C/COC(C)(C)C(=O)NS(=O)(=O)c2ccc3c(c2)N(C[C@@H]2CC[C@H]21)C[C@@]1(CCCc2cc(Cl)ccc21)CO3` [Example 267, (3R,6R,7S,8E,22S)-6′-Chloro-7-[2-[methoxy(methyl)amino]ethoxy]-12,12-dimethyl-15,15-dioxo-spiro[11,20-dioxa-15-thia-1,14-diazatetracyclo[14.7.2.03,6.019,24]pentacosa-8,16,18,24-tetraene-22,1′-tetralin]-13-one]: the Ki at MCL-1 (class symbols) was 1 to 100 nM. Moreover, the concentration for half-maximal inhibition (IC50) with H929 cells (setting [1]) is < 1000 nM.

Regarding `CONC(=O)O[C@H]1/C=C/COC(C)(C)C(=O)NS(=O)(=O)c2ccc3c(c2)N(C[C@@H]2CC[C@H]21)C[C@@]1(CCCc2cc(Cl)ccc21)CO3` [Example 167, [(3R,6R,7S,8E,22S)-6′-Chloro-12,12-dimethyl-13,15,15-trioxo-spiro[11,20-dioxa-15-thia-1,14-diazatetracyclo[14.7.2.03,6.019,24]pentacosa-8,16,18,24-tetraene-22,1′-tetralin]-7-yl] N-methoxycarbamate], the Ki on MCL-1 (class symbols) is < 1 nM. Besides, in the assay with H929 cells (setting [1]), the half-maximal inhibitory concentration (IC50) was < 500 nM.

For `CO[C@@H]1/C=C/CCC2(CC2)C(=O)NS(=O)(=O)c2ccc3c(c2)N(C[C@@H]2CC[C@H]21)C[C@@]1(CCCc2cc(Cl)ccc21)CO3` [Example 69, (3R,6R,7R,8E,22S)-6′-Chloro-7-methoxy-12,12-ethylene-15,15-dioxo-spiro[[20]oxa[15]thia-1,14-diazatetracyclo[14.7.2.03,6.019,24]pentacosa[8,16(25),17,19(24)]tetraene-22,1′-tetralin]-13-one], the Ki on MCL-1 (class symbols) was in the range of 1 to 100 nM. In addition, in the assay with H929 cells (24 hours), the IC50 was > 1000 nM.

For `CN1C/C=C/[C@H](OCCN2CC[C@@H](F)C2)[C@@H]2CC[C@H]2CN2C[C@@]3(CCCc4cc(Cl)ccc43)COc3ccc(cc32)S(=O)(=O)NC(=O)C1(C)C` [Example 276, (3R,6R,7S,8E,22S)-6′-Chloro-7-[2-[(3R)-3-fluoropyrrolidin-1-yl]ethoxy]-11,12,12-trimethyl-15,15-dioxo-spiro[20-oxa-15-thia-1,11,14-triazatetracyclo[14.7.2.03,6.019,24]pentacosa-8,16,18,24-tetraene-22,1′-tetralin]-13-one], the Ki on MCL-1 (class symbols) was < 1 nM. Moreover, the IC50 in the assay with H929 cells (setting [1]) was < 1000 nM.

Take `CN(C)C(=O)O[C@@H]1/C=C/COC2(CC2)C(=O)NS(=O)(=O)c2ccc3c(c2)N(C[C@@H]2CC[C@H]21)C[C@@]1(CCCc2cc(Cl)ccc21)CO3` [Example 39, [(3R,6R,7R,8E,22S)-6′-Chloro-12,12-ethylene-13,15,15-trioxo-spiro[11,20-dioxa-15-thia-1,14-diazatetracyclo[14.7.2.03,6.019,24]pentacosa-8,16,18,24-tetraene-22,1′-tetralin]-7-yl] N,N-dimethylcarbamate]: on MCL-1 (class symbols), the Ki was < 1 nM. Also, the 50% inhibitory concentration (IC50) in the assay on H929 cells (setting [1]) was < 1000 nM.

Turning to `CC1(C)OC/C=C/[C@H](OCCN2CC[C@@H](F)C2)[C@@H]2CC[C@H]2CN2C[C@@]3(CCCc4cc(Cl)ccc43)COc3ccc(cc32)S(=O)(=O)NC1=O` [Example 264, (3R,6R,7S,8E,22S)-6′-Chloro-7-[2-[(3R)-3-fluoropyrrolidin-1-yl]ethoxy]-12,12-dimethyl-15,15-dioxo-spiro[11,20-dioxa-15-thia-1,14-diazatetracyclo[14.7.2.03,6.019,24]pentacosa-8,16,18,24-tetraene-22,1′-tetralin]-13-one], the Ki at MCL-1 (class symbols) is < 1 nM. Further, in the assay with H929 cells (setting [1]), the IC50 is < 500 nM.

For the compound `CO[C@@H]1CCN(CCO[C@H]2/C=C/COC(C)(C)C(=O)NS(=O)(=O)c3ccc4c(c3)N(C[C@@H]3CC[C@H]32)C[C@@]2(CCCc3cc(Cl)ccc32)CO4)C1` [Example 260, (3R,6R,7S,8E,22S)-6′-Chloro-7-[2-[(3R)-3-methoxypyrrolidin-1-yl]ethoxy]-12,12-dimethyl-15,15-dioxo-spiro[11,20-dioxa-15-thia-1,14-diazatetracyclo[14.7.2.03,6.019,24]pentacosa-8,16,18,24-tetraene-22,1′-tetralin]-13-one], the Ki at MCL-1 (class symbols) is < 1 nM. For the same compound, in the assay with H929 cells (setting [1]), the IC50 was < 500 nM.

For `CO[C@@H]1/C=C/CO[C@@H](C)C(=O)NS(=O)(=O)c2ccc3c(c2)N(C[C@@H]2CC[C@H]21)C[C@@]1(CCCc2cc(Cl)ccc21)CO3` [Example 114, (3R,6R,7R,8E,12S,22S)-6′-Chloro-7-methoxy-12-methyl-15,15-dioxo-spiro[11,20-dioxa-15-thia-1,14-diazatetracyclo[14.7.2.03,6.019,24]pentacosa-8,16,18,24-tetraene-22,1′-tetralin]-13-one], the Ki on MCL-1 (class symbols) was < 1 nM. For the same compound, the IC50 in the assay with H929 cells (setting [1]) is < 1000 nM.

Take `O=C1Cc2cccc(c2)SC[C@@H]2CCC2CN2CC3(CCCc4cc(Cl)ccc43)COc3ccc(cc32)S(=O)(=O)N1` (stereo partly drawn) [Example 25, (1S,1′R,2′R)-6-Chloro-3,4-dihydro-2H-spiro[naphthalene-1,3′-5,10-dithia-9-aza-1(5,7)-benzo[b][1,4]oxazepina-6(1,3)-benzena-3(1,2)-cyclobutanacyclodecaphan]-8′-one 10′,10′-dioxide]: the Ki at MCL-1 (numeric values) turned out to be 9 nM. The 50% inhibitory concentration (IC50) with H929 cells (setting [1]) is > 1000 nM.

On to `COC1CN(C(=O)O[C@H]2/C=C/CN(C)C(C)(C)C(=O)NS(=O)(=O)c3ccc4c(c3)N(C[C@@H]3CC[C@H]32)C[C@@]2(CCCc3cc(Cl)ccc32)CO4)C1` [Example 217, [(3R,6R,7S,8E,22S)-6′-Chloro-11,12,12-trimethyl-13,15,15-trioxo-spiro[20-oxa-15-thia-1,11,14-triazatetracyclo[14.7.2.03,6.019,24]pentacosa-8,16,18,24-tetraene-22,1′-tetralin]-7-yl] 3-methoxyazetidine-1-carboxylate], for which the Ki at MCL-1 (class symbols) was < 1 nM. In addition, in the assay on H929 cells (setting [1]), the IC50 was < 500 nM.

Turning to `CC1(C)OC/C=C/[C@H](OC(=O)N2CCN3CCOC[C@H]3C2)[C@@H]2CC[C@H]2CN2C[C@@]3(CCCc4cc(Cl)ccc43)COc3ccc(cc32)S(=O)(=O)NC1=O` [Example 171, [(3R,6R,7S,8E,22S)-6′-Chloro-12,12-dimethyl-13,15,15-trioxo-spiro[11,20-dioxa-15,6-thia-1,14-diazatetracyclo[14.7.2.03,6.019,24]pentacosa-8,16,18,24-tetraene-22,1′-tetralin]-7-yl](9aS)-3,4,6,7,9,9a-hexahydro-1H-pyrazino[2,1-c][1,4]oxazine-8-carboxylate], the Ki at MCL-1 (class symbols) is < 1 nM. In addition, the IC50 in the assay with H929 cells (setting [1]) is < 500 nM.

Consider `CC1(C)OC/C=C\[C@H](O)[C@@H]2CC[C@H]2CN2C[C@@]3(CCCc4cc(Cl)ccc43)COc3ccc(cc32)S(=O)(=O)NC1=O` [Example 33, (3R,6R,7S,8Z,22S)-6′-Chloro-7-hydroxy-12,12-dimethyl-15,15-dioxo-spiro[11,20-dioxa-15-thia-1,14-diazatetracyclo[14.7.2.03,6.019,24]pentacosa-8,16,18,24-tetraene-22,1′-tetralin]-13-one], for which the Ki at MCL-1 (class symbols) is < 1 nM. Moreover, in the assay on H929 cells (setting [1]), the half-inhibitory concentration (IC50) was < 500 nM.

For `COC[C@H]1CCCN1C(=O)O[C@H]1/C=C/COC(C)(C)C(=O)NS(=O)(=O)c2ccc3c(c2)N(C[C@@H]2CC[C@H]21)C[C@@]1(CCCc2cc(Cl)ccc21)CO3` [Example 161, [(3R,6R,7S,8E,22S)-6′-Chloro-12,12-dimethyl-13,15,15-trioxo-spiro[11,20-dioxa-15-thia-1,14-diazatetracyclo[14.7.2.03,6.019,24]pentacosa-8,16,18,24-tetraene-22,1′-tetralin]-7-yl] (2R)-2-(methoxymethyl)pyrrolidine-1-carboxylate], the Ki at MCL-1 (class symbols) is < 1 nM. Besides, the half-maximal inhibitory concentration (IC50) with H929 cells (setting [1]) is < 1000 nM.

Take `CO[C@H]1/C=C/CN(C)C(C)(C)C(=O)NS(=O)(=O)c2ccc3c(c2)N(C[C@@H]2CC[C@H]21)C[C@@]1(CCCc2cc(Cl)ccc21)CO3` [Example 137, (3R,6R,7S,8E,22S)-6′-Chloro-7-methoxy-11,12,12-trimethyl-15,15-dioxo-spiro[20-oxa-15-thia-1,11,14-triazatetracyclo[14.7.2.03,6.019,24]pentacosa-8,16,18,24-tetraene-22,1′-tetralin]-13-one]: on MCL-1 (class symbols), the Ki is 1 to 100 nM. For the same compound, the IC50 with H929 cells (setting [1]) was < 1000 nM.

Turning to `CC1(C)OC/C=C/[C@H](OC(=O)N2CCC(F)(F)C2)[C@@H]2CC[C@H]2CN2C[C@@]3(CCCc4cc(Cl)ccc43)COc3ccc(cc32)S(=O)(=O)NC1=O` [Example 166, [(3R,6R,7S,8E,22S)-6′-Chloro-12,12-dimethyl-13,15,15-trioxo-spiro[11,20-dioxa-15-thia-1,14-diazatetracyclo[14.7.2.03,6.019,24]pentacosa-8,16,18,24-tetraene-22,1′-tetralin]-7-yl] 3,3-difluoropyrrolidine-1-carboxylate], the Ki on MCL-1 (class symbols) is < 1 nM. In the assay on H929 cells (setting [1]), the IC50 was < 500 nM.

As for `CCN1C/C=C/[C@H](O)[C@@H]2CC[C@H]2CN2C[C@@]3(CCCc4cc(Cl)ccc43)COc3ccc(cc32)S(=O)(=O)NC(=O)C1(C)C` [Example 219, (3R,6R,7S,8E,22S)-6′-Chloro-7-hydroxy-11-ethyl-12,12-dimethyl-15,15-dioxo-spiro[20-oxa-15-thia-1,11,14-triazatetracyclo[14.7.2.03,6.019,24]pentacosa-8,16,18,24-tetraene-22,1′-tetralin]-13-one], on MCL-1 (class symbols), the Ki fell in the range of 1 to 100 nM. Further, the 50% inhibitory concentration (IC50) in the assay with H929 cells (setting [1]) was < 500 nM.

In the case of `C[C@@H]1C(=O)NS(=O)(=O)c2ccc3c(c2)N(C[C@@H]2CC[C@H]2[C@@H](OC(=O)N(C)C)/C=C/CN1C)C[C@@]1(CCCc2cc(Cl)ccc21)CO3` [Example 145, [(3R,6R,7S,8E,12R,22S)-6′-Chloro-11,12-dimethyl-13,15,15-trioxo-spiro[20-oxa-15-thia-1,11,14-triazatetracyclo[14.7.2.03,6.019,24]pentacosa-8,16,18,24-tetraene-22,1′-tetralin]-7-yl] N,N-dimethylcarbamate], the Ki at MCL-1 (class symbols) is < 1 nM. Moreover, the IC50 in the assay with H929 cells (setting [1]) is < 500 nM.
